Measured values as given in patent publication US8759333B2, “Di-azetidinyl diamide as monoacylglycerol lipase inhibitors” (Janssen Pharmaceutica, NV, priority 2010, dated 2014).
Residue numbers refer to the chain shown, from its start.

How the values were obtained:
mutant MGL = biological target: T1, mutant MGL (Homo sapiens, UniProt Q99685, L169S/L176S); experiment: MGL ThermoFluor Assay - Mutant; assay type: binding; details: 0.07 mg/ml mutant MGL, 100 μM ANS, pH 7.0
T1 construct: purified mutant MGL (mut-MGLL 11-313 L179S L186S)
T1 sequence (Q99685 1-303 L169S/L176S): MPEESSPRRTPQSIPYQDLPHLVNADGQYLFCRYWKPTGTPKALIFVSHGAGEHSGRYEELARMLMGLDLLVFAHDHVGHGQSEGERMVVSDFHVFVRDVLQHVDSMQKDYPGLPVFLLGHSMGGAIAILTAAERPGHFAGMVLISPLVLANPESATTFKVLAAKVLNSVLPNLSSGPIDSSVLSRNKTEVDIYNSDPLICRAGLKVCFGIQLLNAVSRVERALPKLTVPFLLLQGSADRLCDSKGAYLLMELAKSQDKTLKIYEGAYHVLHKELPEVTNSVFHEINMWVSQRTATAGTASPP
Procedure, shortened: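 Thermal-shift binding with 0.07 mg/ml L169S/L176S mutant MGL, 100 μM 1,8-ANS, 200 mM NaCl, 0.001% Tween-20, 50 mM PIPES pH 7.0, heated 40–90 °C at 1 °C/min.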

[1] = test system: CFA-Induced Paw Radiant Heat Hypersensitivity; experiment: CFA-Induced Paw Radiant Heat Hypersensitivity; assay type: in vivo; details: rat, HPβCD; for Method 2: peak % reversal: individual animal values
Protocol: Each rat was placed in a test chamber on a warm glass surface and allowed to acclimate for approximately 10 min. A radiant thermal stimulus (beam of light) was focused through the glass onto the plantar surface of each hind paw in turn. The thermal stimulus was automatically shut off by a photoelectric relay when the paw was moved or when the cut-off time was reached (20 sec for radiant heat at ˜5 amps). An initial (baseline) response latency to the thermal stimulus was recorded for each animal prior to the injection of complete Freund's adjuvant (CFA). Twenty-four hours following intraplantar CFA injection, the response latency of the animal to the thermal stimulus was re-evaluated and compared to the animal's baseline response time. […] Immediately following the post-CFA latency assessment, the indicated test compound or vehicle was administered orally. Post-compound treatment withdrawal latencies were assessed at fixed time intervals, typically 30, 60, 120, 180, and 300 min.
The percent reversal (% R) of hypersensitivity was calculated in one of two different ways:
1) using group mean values or 2) using individual animal values. More specifically:
Method 1. For all compounds, the % R of hypersensitivity was calculated using the mean value for groups of animals at each time point according to the following formula: % reversal=[(group treatment response−group CFA response)/(group baseline response−group CFA response)]×100 Results were given for the maximum % reversal observed for each compound at any time point tested.
Method 2. For some compounds, the % R of hypersensitivity was calculated separately for each animal according to the following formula: % reversal=[(individual treatment response−individual CFA response)/(individual baseline response−individual CFA response)]×100.
Results are given as a mean of the maximum % reversal values calculated for each individual animal.

[2] = biological target: T2, mutant MGL (mut-MGLL 11-313 L179S L186S) (Homo sapiens, UniProt Q99685, L169S/L176S); experiment: MGL Enzyme Activity Assay, purified mutant MGL, 4MU-B substrate; assay type: biochemical; details: mutant MGL 5 nM, 4MU-B 10 μM, 37° C.; read-out: MGL mutant inh IC50
T2 construct: purified mutant MGL (mut-MGLL 11-313 L179S L186S)
T2 sequence (Q99685 1-303 L169S/L176S): T1 sequence (Q99685 1-303 L169S/L176S)
Procedure, shortened: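 Purified mutant MGL (5 nM final) with 10 μM 4MU-B in 20 mM PIPES pH 7.0, 150 mM NaCl, 0.001% Tween 20; compounds 17 to 0.0003 μM final. Fluorescence (ex 335/em 440 nm) followed 5 min at 37 °C; IC50 from fit of fractional activity versus inhibitor concentration.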

MGL = biological target: T3, MGL (Rattus norvegicus, UniProt Q8R431); experiment: 2-AG Accumulation Assay in rat brain homogenate; assay type: biochemical; details: percent of vehicle; for activity at 1 µM: compound @1 µM, read-out: Rat Brain 2AG % VehCntrl (%) @1 µM; for activity at 10 µM: compound @10 µM, read-out: Rat Brain 2AG % VehCntrl (%) @10 µM
T3 construct: one g rat brain was homogenized using a Polytron homogenizer; from tissue; host or cells: rat brain homogenate
T3 sequence (Q8R431 1-303): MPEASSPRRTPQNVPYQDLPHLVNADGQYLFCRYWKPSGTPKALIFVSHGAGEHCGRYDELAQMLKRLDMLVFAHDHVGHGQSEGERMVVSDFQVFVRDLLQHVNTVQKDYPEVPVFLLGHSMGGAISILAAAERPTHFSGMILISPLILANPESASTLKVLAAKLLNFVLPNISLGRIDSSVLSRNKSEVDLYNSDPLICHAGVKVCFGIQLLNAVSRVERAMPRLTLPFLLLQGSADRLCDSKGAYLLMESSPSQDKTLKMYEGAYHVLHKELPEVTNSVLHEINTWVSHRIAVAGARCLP

[3] = biological target: T4, wild type MGL (wt-MGLL 6H-11-313) (Homo sapiens, UniProt Q99685); experiment: MGL Enzyme Activity Assay, purified wild type MGL, 4MU-B substrate; assay type: biochemical; details: wild type MGL 5 nM, 4MU-B 10 μM, 37° C.; read-out: MGL wild type inh IC50
T4 construct: purified wild type MGL (wt-MGLL 6H-11-313); 6H (hexahistidine) (N)
T4 sequence (Q99685 1-303): T1 sequence (Q99685 1-303 L169S/L176S) with S169L, S176L
Protocol: All rate-based assays were performed in black 384-well polypropylene PCR microplates (Abgene) in a total volume of 30 μL. […] Final compound concentrations ranged from 17 to 0.0003 μM.
The IC50 values for the following compounds were determined using Microsoft Office Excel from a fit of the equation to the concentration-response plot of the fractional activity as a function of inhibitor concentration.

[4] = po, 5 h, 30 mg/kg p.o., group mean values, last time point 300 min (180 min for Cpd 17, 77), read-out: Method 1: peak % reversal
[5] = 30 mg/kg p.o., last time point 300 min (180 min for Cpd 17, 77)

Kd (mutant MGL) [nM] | IC50 [2] [nM] | activity at 1 µM (MGL) [%] | activity at 10 µM (MGL) [%] | IC50 [3] [nM] | SMILES | inhibition in vivo at 10 mg/kg ([1]; po, 5 h, 10 mg/kg p.o., group mean values, last time point 300 min, read-out: Method 1: peak % reversal) [%] | inhibition in vivo at 30 mg/kg [1, 4] [%] | Method 2: peak % reversal ([1]; 10 mg/kg p.o., last time point 300 min) [%] | Method 2: peak % reversal [1, 5] [%]
6 | 5 | 370 | 639 | < 5 | O=C(NC1CN(C2CN(C(=O)c3ccc4c(ccn4-c4ccc(C(F)(F)F)cc4)c3)C2)C1)c1nccs1 [Cpd 1, N-[1′-({1-[4-(Trifluoromethyl)phenyl]-1H-indol-5-yl}carbonyl)-1,3′-biazetidin-3-yl]-1,3-thiazole-2-carboxamide] | -18.6 | 10.3 | −19.0 | 7.4
22 | 6 | 620 | – | 8 | O=C(NC1CN(C2CN(C(=O)c3ccc(-c4cccc(C(F)(F)F)c4)cc3)C2)C1)c1cscn1 [Cpd 2, N-(1′-{[3′-(Trifluoromethyl)biphenyl-4-yl]carbonyl}-1,3′-biazetidin-3-yl)-1,3-thiazole-4-carboxamide] | – | 47.9 | – | –
11.2 | 7 | 347 | 921 | 15 | O=C(NC1CN(C2CN(C(=O)c3ccc(-c4cccc(C(F)(F)F)c4)cc3)C2)C1)c1nccs1 [Cpd 5, N-(1′-{[3′-(Trifluoromethyl)biphenyl-4-yl]carbonyl}-1,3′-biazetidin-3-yl)-1,3-thiazole-2-carboxamide] | – | 57.4 | – | 55.8
0.7 | < 5 | 460 | – | < 5 | O=C(NC1CN(C2CN(C(=O)c3sc4cc(C(F)(F)F)ccc4c3Cl)C2)C1)c1nccs1 [Cpd 50, N-(1′-{[3-Chloro-6-(trifluoromethyl)-1-benzothiophen-2-yl]carbonyl}-1,3′-biazetidin-3-yl)-1,3-thiazole-2-carboxamide] | – | – | – | –
2.2 | < 5 | 477 | – | < 5 | O=C(NC1CN(C2CN(C(=O)c3sc4cc(C(F)(F)F)ccc4c3Cl)C2)C1)c1cscn1 [Cpd 51, N-(1′-{[3-Chloro-6-(trifluoromethyl)-1-benzothiophen-2-yl]carbonyl}-1,3′-biazetidin-3-yl)-1,3-thiazole-4-carboxamide] | – | – | – | –
73.4 | < 5 | 291 | – | < 5 | O=C(NC1CN(C2CN(C(=O)c3ccc4c(cnn4-c4ccccc4)c3)C2)C1)c1nccs1 [Cpd 52, N-{1′-[(1-Phenyl-1H-indazol-5-yl)carbonyl]-1,3′-biazetidin-3-yl}-1,3-thiazole-2-carboxamide] | – | – | – | –
2.15 | – | 413 | – | 6 | Cc1c(C(=O)N2CC(N3CC(NC(=O)c4nccs4)C3)C2)sc2cc(C(F)(F)F)ccc12 [Cpd 56, N-(1′-{[3-Methyl-6-(trifluoromethyl)-1-benzothiophen-2-yl]carbonyl}-1,3′-biazetidin-3-yl)-1,3-thiazole-2-carboxamide] | – | -1.3 | – | –
10.7 | – | 434 | – | < 5 | Cc1c(C(=O)N2CC(N3CC(NC(=O)c4cscn4)C3)C2)sc2cc(C(F)(F)F)ccc12 [Cpd 67, N-(1′-{[3-Methyl-6-(trifluoromethyl)-1-benzothiophen-2-yl]carbonyl}-1,3′-biazetidin-3-yl)-1,3-thiazole-4-carboxamide] | – | 35.7 | – | –
3.3 | 6 | 433 | – | < 5 | O=C(c1sc2cc(-c3ccccc3)ccc2c1Cl)N1CC(N2CC(N3Cc4ccccc4C3=O)C2)C1 [Cpd 68, 2-{1′-[(3-Chloro-6-phenyl-1-benzothiophen-2-yl)carbonyl]-1,3′-biazetidin-3-yl}-2,3-dihydro-1H-isoindol-1-one] | – | – | – | –
33.2 | 9 | 781 | – | < 5 | CS(=O)(=O)c1cccc(-c2ccc3cc(C(=O)N4CC(N5CC(N6Cc7ccccc7C6=O)C5)C4)sc3c2)c1 [Cpd 72, 2-[1′-({6-[3-(Methylsulfonyl)phenyl]-1-benzothiophen-2-yl}carbonyl)-1,3′-biazetidin-3-yl]-2,3-dihydro-1H-isoindol-1-one] | – | – | – | –
31.3 | 12 | 295 | – | < 5 | O=C(c1sc2cc(Br)ccc2c1Cl)N1CC(N2CC(N3Cc4ccccc4C3=O)C2)C1 [Cpd 73, 2-{1′-[(6-Bromo-3-chloro-1-benzothiophen-2-yl)carbonyl]-1,3′-biazetidin-3-yl}-2,3-dihydro-1H-isoindol-1-one] | – | – | – | –
1.3 | 12 | 323 | – | < 5 | O=C(c1sc2cc(-c3ccccc3)ccc2c1-c1ccccc1)N1CC(N2CC(N3Cc4ccccc4C3=O)C2)C1 [Cpd 74, 2-{1′-[(3,6-Diphenyl-1-benzothiophen-2-yl)carbonyl]-1,3′-biazetidin-3-yl}-2,3-dihydro-1H-isoindol-1-one] | – | – | – | –
105 | 22 | 490 | – | 16 | CS(=O)(=O)c1cccc(-c2ccc3sc(C(=O)N4CC(N5CC(N6Cc7ccccc7C6=O)C5)C4)cc3c2)c1 [Cpd 82, 2-[1′-({5-[3-(Methylsulfonyl)phenyl]-1-benzothiophen-2-yl}carbonyl)-1,3′-biazetidin-3-yl]-2,3-dihydro-1H-isoindol-1-one] | – | – | – | –
4 | – | 534 | – | 6 | Cc1c(C(=O)N2CC(N3CC(N4Cc5ccccc5C4=O)C3)C2)sc2cc(C(F)(F)F)ccc12 [Cpd 101, 2-(1′-{[3-Methyl-6-(trifluoromethyl)-1-benzothiophen-2-yl]carbonyl}-1,3′-biazetidin-3-yl)-2,3-dihydro-1H-isoindol-1-one] | – | 6.1 | – | –
